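Step 1: Grow cells in 96-well plates. Step 2: Expose to compound for 48 hours at 5 concentrations. Step 3: Interpolate endpoints linearly; if unreached, use highest concentration. The concentration for 50% growth inhibition is given as GI50. TGI is the concentration that stops growth completely.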
Key:
Test in all cases: NCI anticancer screen, dose series, 48 h
[1] = tested on: LXFL 529 NSCLC
[2] = tested on: DMS 273 small cell lung
[3] = tested on: SNB-78 CNS
[4] = tested on: DMS 114 small cell lung
[5] = tested on: KM20L2 colon

CC1(C)C2C/C(=C\c3ccccc3)C(=O)C1C2 (configuration not stated)
TGI [1]: > 100 µM
TGI [2]: > 100 µM
TGI [3]: > 100 µM
TGI [4]: > 100 µM

C/C(=C\CC[C@]1(C)OC(C)(C)OC1CC/C(C)=C/CO[Si](c1ccccc1)(c1ccccc1)C(C)(C)C)CC/C=C/CO[Si](C)(C)C(C)(C)C (some centres not stated)
TGI [5]: > 100 µM
TGI [2]: > 100 µM
TGI [3]: > 100 µM
TGI [4]: > 100 µM

CC12CC3CC(C1)CC(N=[N+]=[N-])(C3)C2
TGI [5]: > 100 µM
TGI [1]: > 100 µM
TGI [2]: > 100 µM
TGI [3]: > 100 µM
TGI [4]: > 100 µM

Cn1c(=O)c(C(=O)NC(=O)OCc2ccccc2)cn(CCSCCOC(=O)NCCCCCCNC(=O)OCCSCCn2cc(C(=O)NC(=O)OCc3ccccc3)c(=O)n(C)c2=O)c1=O
TGI [5]: > 100 µM
TGI [1]: > 100 µM
TGI [2]: > 100 µM
TGI [3]: > 100 µM
TGI [4]: > 100 µM

C[CH2][Sn]([CH2]C)([O]C(=O)c1cccc(F)c1)[O][Sn]([CH2]C)([CH2]C)[O]C(=O)c1cccc(F)c1
GI50 [5]: 38.4 µM
TGI [5]: > 100 µM
GI50 [1]: 10.4 µM
TGI [1]: 22.4 µM
GI50 [2]: 32 µM
TGI [2]: > 100 µM
GI50 [3]: 16.3 µM
TGI [3]: 35.1 µM
GI50 [4]: 14 µM
TGI [4]: 27.3 µM

COc1cc(/C=C2/C(=O)NC(Cc3cc(OC)c(OC)c(C)c3OC)C(=O)N2Cc2ccccc2)c(OC)c(C)c1OC (configuration not stated)
TGI [5]: > 100 µM
TGI [1]: > 100 µM
TGI [2]: > 100 µM
TGI [4]: > 100 µM

O=C(N/C(=C\c1ccc(Oc2ccc(Cl)c(Cl)c2)cc1)c1nc2ccccc2[nH]1)c1ccccc1
TGI [5]: 37.2 µM
TGI [1]: 32.3 µM
TGI [2]: 53.9 µM
TGI [3]: 54.8 µM

CC(C)(c1ccc(OC#N)cc1)c1ccc(OC#N)cc1
TGI [5]: > 100 µM
TGI [1]: > 100 µM
TGI [3]: > 100 µM
TGI [4]: > 56.9 µM

C=CCCCCCC(O)C(O)C/C=C\C/C=C\CC (configuration not stated)
TGI [5]: > 18.8 µM
TGI [1]: > 18.8 µM
TGI [2]: > 18.8 µM
TGI [3]: > 18.8 µM
TGI [4]: > 18.8 µM

O=C1C[C@@H]2CCCC[C@@H]2C12SCCS2
TGI [1]: > 100 µM
TGI [2]: > 100 µM
TGI [3]: > 100 µM
TGI [4]: > 100 µM

Cc1ccc(/C=C2\CCCC\C2=N\O)cc1
TGI [5]: > 100 µM
TGI [1]: > 100 µM
TGI [2]: > 100 µM
TGI [3]: > 100 µM

COC(=O)C(CC(=O)Nc1ccc(Cl)c(Cl)c1)C(=O)C(=O)NC1C2CC3CC(C2)CC1C3 (configuration not stated)
TGI [5]: > 100 µM
TGI [1]: > 100 µM
TGI [2]: > 100 µM
TGI [3]: > 100 µM
TGI [4]: > 100 µM

COc1cc2cccc(NC(=O)c3cc(OC)c(OC)c(OC)c3Br)c2cc1OC
TGI [5]: > 100 µM
TGI [1]: 10.9 µM
TGI [3]: 49 µM
TGI [4]: 12.8 µM

O=C1c2c(nc3ccccc3c2-c2ccccc2)CN1Nc1ccccc1
TGI [5]: > 100 µM
TGI [1]: > 100 µM
TGI [4]: > 100 µM

COc1ccccc1/C=N/N=C(\N)NO
TGI [1]: > 100 µM
TGI [3]: > 100 µM
TGI [4]: > 100 µM

Clc1ccc(SCCCCCCCCCCSc2ccc(Cl)cc2)cc1
TGI [5]: > 87 µM
TGI [1]: > 100 µM
TGI [2]: > 100 µM
TGI [3]: > 100 µM
TGI [4]: > 100 µM

N#CC(C#N)=C1SCC(=O)CS1
TGI [5]: > 100 µM
TGI [1]: > 100 µM
TGI [2]: > 100 µM
TGI [3]: > 100 µM
TGI [4]: > 100 µM

C/C(=N\O)C(CN1CCCCC1)C(c1ccccc1)c1c(O)c2ccccc2oc1=O (configuration not stated)
TGI [5]: > 100 µM
TGI [1]: > 100 µM
TGI [4]: > 100 µM

C=C(C)[C@H](O)C(O)CC(C)[C@@H]1CCC23CC12CCC1[C@@]2(C)CCC(OC(C)=O)C(C)(C)C2CC(OC2OC(COC(C)=O)C(O)C(O)C2O)[C@]13C (some centres not stated)
TGI [5]: 9.84 µM
TGI [1]: 10.9 µM
TGI [2]: 11.4 µM
TGI [3]: 14.2 µM
TGI [4]: 10.7 µM

Cc1cccc2c1C/C(=C1\CCc3c(C)cccc31)C2=O
TGI [5]: > 100 µM
TGI [1]: > 100 µM
TGI [2]: > 100 µM
TGI [4]: > 100 µM

COc1cc(C(=O)CC2(O)C(=O)Nc3c(Cl)cc(Cl)cc32)ccc1O (configuration not stated)
TGI [5]: > 100 µM
TGI [1]: > 100 µM
TGI [2]: > 100 µM
TGI [3]: > 100 µM
TGI [4]: > 100 µM

O=C(/C=C1/NC(=O)CS1)Nc1ccccc1
TGI [5]: > 100 µM
TGI [1]: > 100 µM
TGI [2]: > 100 µM
TGI [3]: > 100 µM
TGI [4]: > 100 µM

Cc1cccc2c1C(=O)OC2(C)c1cccc2ccccc12 (configuration not stated)
TGI [5]: 59.5 µM
TGI [3]: > 100 µM
TGI [4]: > 100 µM

COc1cc([C@@H]2OC(=O)C3C2C(=O)O[C@H]3c2cc(OC)c(OC)c(OC)c2)cc(OC)c1OC (some centres not stated)
TGI [5]: > 100 µM
TGI [2]: > 100 µM
TGI [3]: > 100 µM
TGI [4]: > 100 µM

COC1=CC(=O)[C@]2(C)[C@H](C1=O)C(C)[C@H]2c1ccccc1 (some centres not stated)
TGI [1]: > 100 µM
TGI [2]: > 100 µM
TGI [3]: > 100 µM

Cc1ccc(N2C(=O)/C(=C/c3ccc(N(CCC#N)CCC#N)cc3C)N=C2c2cc([N+](=O)[O-])ccc2Cl)cc1
TGI [1]: > 100 µM
TGI [2]: > 100 µM
TGI [3]: > 100 µM
TGI [4]: > 100 µM

CC1=NN(C(=O)c2ccc(Cl)cc2)C(=O)/C1=C/c1ccc(O)cc1
TGI [5]: > 100 µM
TGI [1]: > 100 µM
TGI [4]: > 100 µM

— PubChem BioAssay (NCI)
